# Assay results published in PMC4691143, “Biochemical Characterization of An Arginine-Specific Alkaline Trypsin from Bacillus licheniformis” (International Journal of Molecular Sciences, 2015).
# System: T1, B. licheniformis DMN6 trypsin (arginine-specific alkaline trypsin)
# T1 construct: gene BLDMN6; native secreted enzyme purified from DMN6 culture supernatant (DEAE, Superdex 75); 44 kDa by SDS-PAGE
# Assay: spectrophotometric hydrolysis at […] nm, Lineweaver-Burk
# Format: biochemical, Bacillus licheniformis
# Details: 25 °C, 50 mM Tris-HCl pH 9.0, 0.1-1.5 mM BAEE
compound,measurement,value
CCOC(=O)[C@H](CCCNC(=N)N)NC(=O)c1ccccc1 [BAEE],Km,880 µM
